Measurements taken from US10316028B2, “Orexin receptor antagonists” (Heptares Therapeutics Limited, priority 2012, dated 2019).

Molecular target: T1, human Orexin-2 receptor (Homo sapiens, UniProt O43614)
T1 construct: expressed in transfected cells; host or cells: HEK293 cells (transient transfection, Genejuice); membranes
T1 sequence (O43614 1-444): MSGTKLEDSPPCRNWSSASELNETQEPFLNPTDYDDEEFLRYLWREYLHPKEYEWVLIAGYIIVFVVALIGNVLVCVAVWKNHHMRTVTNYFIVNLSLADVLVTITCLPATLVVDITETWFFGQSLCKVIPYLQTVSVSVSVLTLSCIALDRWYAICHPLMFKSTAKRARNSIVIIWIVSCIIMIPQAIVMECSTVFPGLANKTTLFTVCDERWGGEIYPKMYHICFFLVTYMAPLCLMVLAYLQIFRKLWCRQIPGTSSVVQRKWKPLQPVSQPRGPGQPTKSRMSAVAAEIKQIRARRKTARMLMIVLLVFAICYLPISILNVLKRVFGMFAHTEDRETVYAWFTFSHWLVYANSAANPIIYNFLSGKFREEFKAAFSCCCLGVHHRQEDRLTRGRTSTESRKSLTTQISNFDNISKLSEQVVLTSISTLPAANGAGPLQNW
Assay: 3H-EMPA radioligand binding assay
Settings: 3H-EMPA displacement, membranes of HEK293 cells transfected with human Orexin-2 receptor; KI by Cheng-Prussoff; read-out: OX2 pKi ave (converted)
Procedure, shortened: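 Membranes from HEK293 cells transiently transfected with human orexin-2 receptor cDNA, assayed with [3H]EMPA. Bound ligand collected on PEI-treated GF/B filters and counted by scintillation; IC50 from inhibition curves, Ki by Cheng-Prusoff.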

| Ki | SMILES |
| --- | --- |
| 0.575 nM | COc1cc(N2C(=O)N(Cc3c(F)cc(F)cc3Cl)c3ccccc3S2(=O)=O)cc(OC)n1 [Example 157, 4-(2-Chloro-4,6-difluorobenzyl)-2-(2,6-dimethoxypyridin-4-yl)-2H-1,2,4-benzothiadiazin-3(4H)-one 1,1-dioxide] |
| 3.39 nM | CN(C)c1cccc(N2C(=O)N(Cc3c(F)cc(F)cc3F)c3ccccc3S2(=O)=O)n1 [Example 158, 2-[6-(Dimethylamino)pyridin-2-yl]-4-(2,4,6-trifluorobenzyl)-2H-1,2,4-benzothiadiazin-3(4H)-one 1,1-dioxide] |
| 3.09 nM | CN(C)c1cc(N2C(=O)N(Cc3c(F)cc(F)cc3F)c3ccccc3S2(=O)=O)ccn1 [Example 159, 2-[2-(Dimethylamino)pyridin-4-yl]-4-(2,4,6-trifluorobenzyl)-2H-1,2,4-benzothiadiazin-3(4H)-one 1,1-dioxide] |
| 17.4 nM | CSc1ccc(N2C(=O)N(Cc3c(F)cc(F)cc3F)c3ccccc3S2(=O)=O)cn1 [Example 160, 2-[6-(Methylsulfanyl)pyridin-3-yl]-4-(2,4,6-trifluorobenzyl)-2H-1,2,4-benzothiadiazin-3(4H)-one 1,1-dioxide] |
| 1.26 nM | COc1ccc(N2C(=O)N(Cc3c(F)cc(F)cc3Cl)c3ccccc3S2(=O)=O)nc1OC [Example 161, 4-(2-Chloro-4,6-difluorobenzyl)-2-(5,6-dimethoxypyridin-2-yl)-2H-1,2,4-benzothiadiazin-3(4H)-one 1,1-dioxide] |
| 18.6 nM | COc1cc(N2C(=O)N(Cc3ncc(F)cc3C)c3ccccc3S2(=O)=O)cc(OC)n1 [Example 162, 2-(2,6-Dimethoxypyridin-4-yl)-4-[(5-fluoro-3-methylpyridin-2-yl)methyl]-2H-1,2,4-benzothiadiazin-3(4H)-one 1,1-dioxide] |
| 1.38 nM | COc1cc(F)c(CN2C(=O)N(c3cc(OC)nc(OC)c3)S(=O)(=O)c3cccnc32)c(F)c1 [Example 163, 4-(2,6-Difluoro-4-methoxybenzyl)-2-(2,6-dimethoxypyridin-4-yl)-2H-pyrido[2,3-e][1,2,4]thiadiazin-3(4H)-one 1,1-dioxide] |
| 0.661 nM | COc1cc(F)c(CN2C(=O)N(c3ccc(OC)c(OC)n3)S(=O)(=O)c3cccnc32)c(F)c1 [Example 164, 4-(2,6-Difluoro-4-methoxybenzyl)-2-(5,6-dimethoxypyridin-2-yl)-2H-pyrido[2,3-e][1,2,4]thiadiazin-3(4H)-one 1,1-dioxide] |
| 0.676 nM | COc1cc(F)c(CN2C(=O)N(c3cnc(OC)c(OC)c3)S(=O)(=O)c3cccnc32)c(F)c1 [Example 165, 4-(2,6-Difluoro-4-methoxybenzyl)-2-(5,6-dimethoxypyridin-3-yl)-2H-pyrido[2,3-e][1,2,4]thiadiazin-3(4H)-one 1,1-dioxide] |
| 2.69 nM | COc1cc(N2C(=O)N(Cc3c(F)cccc3Cl)c3ccccc3S2(=O)=O)cc(OC)n1 [Example 166, 4-(2-Chloro-6-fluorobenzyl)-2-(2,6-dimethoxypyridin-4-yl)-2H-1,2,4-benzothiadiazin-3(4H)-one 1,1-dioxide] |
| 2.19 nM | COc1cc(N2C(=O)N(Cc3c(F)cccc3F)c3ccccc3S2(=O)=O)cc(OC)n1 [Example 167, 4-(2,6-Difluorobenzyl)-2-(2,6-dimethoxypyridin-4-yl)-2H-1,2,4-benzothiadiazin-3(4H)-one 1,1-dioxide] |
| 1.23 nM | COc1ccc(N2C(=O)N(Cc3c(F)cccc3Cl)c3ncccc3S2(=O)=O)nc1OC [Example 168, 4-(2-Chloro-6-fluorobenzyl)-2-(5,6-dimethoxypyridin-2-yl)-2H-pyrido[2,3-e][1,2,4]thiadiazin-3(4H)-one 1,1-dioxide] |
| 0.851 nM | COc1ccc(N2C(=O)N(Cc3c(F)cccc3F)c3ncccc3S2(=O)=O)nc1OC [Example 169, 4-(2,-Difluorobenzyl)-2-(5,6-dimethoxypyridin-2-yl)-2H-pyrido[2,3-e][1,2,4]thiadiazin-3(4H)-one 1,1-dioxide] |
| 7.24 nM | COc1cnc(N2C(=O)N(Cc3c(F)cc(F)cc3F)c3ccccc3S2(=O)=O)nc1OC [Example 170, 2-(4,5-dimethoxypyrimidin-2-yl)-4-(2,4,6-trifluorobenzyl)-2H-1,2,4-benzothiadiazin-3(4H)-one 1,1-dioxide] |
| 1.78 nM | COc1cc(F)c(CN2C(=O)N(c3cnc(OC)c(C)c3)S(=O)(=O)c3ccccc32)c(F)c1 [Example 171, 4-(2,6-difluoro-4-methoxybenzyl)-2-(6-methoxy-5-methylpyridin-3-yl)-2H-1,2,4-benzothiadiazin-3(4H)-one 1,1-dioxide] |
| 7.76 nM | CNc1ccc(N2C(=O)N(Cc3c(F)cc(F)cc3F)c3ncccc3S2(=O)=O)nc1OC [Example 172, 2-[6-methoxy-5-(methylamino)pyridin-2-yl]-4-(2,4,6-trifluorobenzyl)-2H-pyrido[2,3-e][1,2,4]thiadiazin-3(4H)-one 1,1-dioxide] |
| 2.4 nM | COc1cc(F)c(CN2C(=O)N(c3ccc(C)c(C)n3)S(=O)(=O)c3cccnc32)c(F)c1 [Example 173, 4-(2,6-Difluoro-4-methoxybenzyl)-2-(5,6-dimethylpyridin-2-yl)-2H-pyrido[2,3-e][1,2,4]thiadiazin-3(4H)-one 1,1-dioxide] |
| 7.24 nM | COc1cc(F)c(CN2C(=O)N(c3cc(C)cc(C)n3)S(=O)(=O)c3cccnc32)c(F)c1 [Example 174, 4-(2,6-Difluoro-4-methoxybenzyl)-2-(4,6-dimethylpyridin-2-yl)-2H-pyrido[2,3-e][1,2,4]thiadiazin-3(4H)-one 1,1-dioxide] |
| 1.35 nM | COc1cc(F)c(CN2C(=O)N(c3ccc(C)c(OC)n3)S(=O)(=O)c3cccnc32)c(F)c1 [Example 175, 4-(2,6-Difluoro-4-methoxybenzyl)-2-(6-methoxy-5-methylpyridin-2-yl)-2H-pyrido[2,3-e][1,2,4]thiadiazin-3(4H)-one 1,1-dioxide] |
| 6.46 nM | COc1cc(N2C(=O)N(Cc3c(F)cc(F)cc3F)c3ncccc3S2(=O)=O)cnc1C [Example 176, 2-(5-Methoxy-6-methylpyridin-3-yl)-4-(2,4,6-trifluorobenzyl)-2H-pyrido[2,3-e][1,2,4]thiadiazin-3(4H)-one 1,1-dioxide] |
| 2.19 nM | CNc1ncc(N2C(=O)N(Cc3c(F)cc(OC)cc3F)c3ncccc3S2(=O)=O)cc1OC [Example 177, 2-[5-Methoxy-6-(methylamino)pyridin-3-yl]-4-(2,6-difluoro-4-methoxybenzyl)-2H-pyrido[2,3-e][1,2,4]thiadiazin-3(4H)-one 1,1-dioxide] |
| 4.37 nM | COc1cc(F)c(CN2C(=O)N(c3cnc(C)c(C)c3)S(=O)(=O)c3ccccc32)c(F)c1 [Example 178, 4-(2,6-difluoro-4-methoxybenzyl)-2-(5,6-dimethylpyridin-3-yl)-2H-1,2,4-benzothiadiazin-3(4H)-one 1,1-dioxide] |
| 3.72 nM | CNc1nc(N2C(=O)N(Cc3c(F)cc(OC)cc3F)c3ccccc3S2(=O)=O)ccc1OC [Example 179, 4-(2,6-difluoro-4-methoxybenzyl)-2-[5-methoxy-6-(methylamino)pyridin-2-yl]-2H-1,2,4-benzothiadiazin-3(4H)-one 1,1-dioxide] |
| 2.04 nM | COc1cc(N2C(=O)N(Cc3c(F)cc(F)cc3Cl)c3ncccc3S2(=O)=O)cc(OC)n1 [Example 180, 4-(2-Chloro-4,6-difluorobenzyl)-2-(2,6-dimethoxypyridin-4-yl)-2H-pyrido[2,3-e][1,2,4]thiadiazin-3(4H)-one 1,1-dioxide] |
